Measured values published in patent US4879220A (priority 1986, dated 1989).

Legend:
glucose transporter = biological target: T1, glucose transporter (Homo sapiens, UniProt P11166); conditions: glucose-glucose transporter complex; Sogin and Hinkle; read-out: dissociation constant; cited from earlier work
T1 construct: intact human erythrocytes labeled with the glucose transporter-specific probe (glucose-GAP); endogenous in cells; host or cells: human erythrocytes
T1 sequence (P11166 1-492): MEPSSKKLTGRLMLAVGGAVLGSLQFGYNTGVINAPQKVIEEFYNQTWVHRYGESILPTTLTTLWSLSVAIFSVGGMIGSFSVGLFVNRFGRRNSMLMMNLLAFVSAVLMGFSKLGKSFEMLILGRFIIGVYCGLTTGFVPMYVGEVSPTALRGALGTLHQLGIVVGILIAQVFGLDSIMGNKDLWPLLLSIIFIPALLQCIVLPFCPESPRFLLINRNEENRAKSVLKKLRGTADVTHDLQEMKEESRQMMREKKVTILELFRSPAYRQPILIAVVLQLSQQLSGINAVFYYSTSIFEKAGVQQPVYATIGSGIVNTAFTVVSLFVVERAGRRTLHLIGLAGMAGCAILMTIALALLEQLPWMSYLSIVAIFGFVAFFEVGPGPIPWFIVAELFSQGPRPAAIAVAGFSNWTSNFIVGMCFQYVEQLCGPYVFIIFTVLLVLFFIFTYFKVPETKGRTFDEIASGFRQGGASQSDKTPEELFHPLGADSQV

[1] = tested on: human foreskin fibroblasts; assay: Morphology and attachment of cultured fibroblasts on exposure to probe or ligand; format: cell-based
Description: Human foreskin fibroblasts were cultured to subconfluency on glass discs placed in culture dishes using Dulbecco's modified Eagle's medium (Gibco Laboratories, Grand Island, NY, U.S.A.). For labeling with glucose-GAP, glass discs with attached fibroblasts were removed from the culture dishes and washed twice with HBS. The cells were then exposed to fresh HBS (experimental) or HBS containing 400 mM glucose or 0.4 uM cytochalasin B (controls) for 5 min at room temperature. […] Cytochem. […] The discs were then placed in a drop of HBS and irradiated on ice as described above for erythrocytes. For labeling with ouabain-GAP cells grown in culture dishes were washed twice with HBS and exposed to HBS containing 400 mM glucose (experimental) or HBS containing 400 mM glucose plus 2 mM ouabain (control) for 15 min at 37° C. An equal volume of ouabain-GAP was then added followed by incubation for 30 min in the dark at room temperature. At this point, the presence of ouabain or ouabain-GAP caused the cells to detach from the substrate. The cells were recovered and unbound probe was removed by centrifugation in HBS. Cells were resuspended in fresh HBS and irradiated for 15 min in a water-jacketed cell at 4° C. using the light source described above.

ATPase = conditions: ouabain-ATPase complex; Erdmann and Hasse; read-out: dissociation constant; cited from earlier work

OC[C@H]1OC(O)[C@H](O)[C@@H](O)[C@@H]1O (stereo partly drawn) [glucose]
Kd (glucose transporter): 50 mM

C[C@@H]1O[C@@H](O[C@H]2C[C@@H](O)[C@]3(CO)[C@H]4[C@H](O)C[C@]5(C)[C@@H](C6=CC(=O)OC6)CC[C@]5(O)[C@@H]4CC[C@]3(O)C2)[C@H](O)[C@H](O)[C@H]1O [ouabain]
morphological response of fibroblasts [1]: caused the cells to lift from the substrate and take on a rounded morphology | Kd (ATPase): 2.8 nM
